Experimental data published in patent publication US9896412B2, “Reagents and method for conjugating biological molecules” (POLYTHERICS LIMITED, priority 2008, dated 2018).

Experimental: A pH 7.4 D2O solution was made by first freeze-drying a 50 mM sodium phosphate aqueous solution containing 150 mM NaCl and 20 mM EDTA at pH 7.4 and reconstituting to the same volume with deuterium oxide. Acetone was added as a standard to the buffer at 1.0 μl per 3 ml. Samples of the PEG reagents were dissolved at 1 μmol in 0.75 ml of the buffer and analysed after 4 h and after 25.5 h by 400 MHz NMR spectroscopy. The stability of the PEG maleimide samples was determined by comparing the integral at 6.86 ppm after normalising using the integral for the acetone standard at 2.17 ppm.

- % Degradation over 21.5 h at pH 7.4: 19%
Substance: α-methoxy-ω-ethyl-maleinimide polyethylene glycol [PEG maleimide sample 2]
